PMC10531311, “Anti-Inflammatory Activities of 8-Benzylaminoxanthines Showing High Adenosine A2A and Dual A1/A2A Receptor Affinity” (International Journal of Molecular Sciences, 2023)
Marks after values point to notes of the source that are not given here.

What was measured:
[1] = Metabolic stability in human liver microsomes; assay type: in vitro ADME; conditions: for number of metabolites formed: HLMs, 120 min; for remaining at 2 h: human, liver microsomes, after 120 min of incubation with HLMs, read-out: % Remaining in the Reaction Mixture
Description: In our study, the compounds were incubated for 120 min with HLMs, followed by liquid chromatography-mass spectrometry (LC-MS) to identify the formed metabolites.
Human liver microsomes (HLMs) were purchased from Sigma-Aldrich (St. Louis, MO, USA; catalog nr M9066-1VL). The studies with microsomes were supported by MetaSite 6.0.1 software provided by Molecular Discovery Ltd. (Hertfordshire, UK), which allowed for the determination of the most probable sites of metabolism. The compounds were incubated with HLMs for 120 min. After the addition of methanol and centrifugation, the supernatants were analyzed with the Waters ACQUITY™ TQD system (Waters, Milford, CT, USA). All reference drugs used (caffeine, ketoconazole, quinidine and sulfaphenazole) were purchased from Sigma-Aldrich (St. Louis, MO, USA).

human adenosine A2AR = molecular target: T1, human adenosine A2AR (Homo sapiens, UniProt P29274); assay: Radioligand binding at human adenosine A2A receptor vs. [3H]MSX-2; conditions: for potency as A2AR ligand compared with A1R: from Ki values of Table 1; for Ki: human recombinant receptor in CHO cells, read-out: A2AR vs. [³H]MSX-2 Ki ± SEM
T1 construct: expressed in transfected cells; host or cells: CHO cells

human adenosine A1R = molecular target: T2, human adenosine A1R (Homo sapiens, UniProt P30542); assay: Radioligand binding at human adenosine A1 receptor vs. [3H]CCPA; conditions: human recombinant receptor in CHO cells; read-out: A1R vs. [³H]CCPA Ki ± SEM
T2 construct: expressed in transfected cells; host or cells: CHO cells
T2 sequence (P30542 1-326): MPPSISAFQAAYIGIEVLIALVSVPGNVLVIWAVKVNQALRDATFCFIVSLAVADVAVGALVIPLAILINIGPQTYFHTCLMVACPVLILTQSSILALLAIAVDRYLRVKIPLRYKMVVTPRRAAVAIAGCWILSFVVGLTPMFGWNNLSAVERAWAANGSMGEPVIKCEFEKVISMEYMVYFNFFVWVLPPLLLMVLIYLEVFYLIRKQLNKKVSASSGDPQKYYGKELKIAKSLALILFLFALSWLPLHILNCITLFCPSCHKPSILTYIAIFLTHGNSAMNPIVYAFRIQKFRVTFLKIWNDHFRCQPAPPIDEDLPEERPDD

formalin test in mice = assay: Formalin test; assay type: in vivo, albino Swiss mice
Description: Injection of formalin into the dorsal surface of the hind paw of a mouse produces a biphasic nocifensive behavioral response; i.e., licking, biting, flinching or lifting of the injected paw. The acute (neurogenic) nociceptive phase lasts for the first 5 min and is followed by a period of little activity for the next 10 min. The first phase of the test is directly associated with nociceptor stimulation and the development of neurogenic inflammation. The second (late) phase occurs between 15 and 30 min after formalin injection. The second phase depends on peripheral inflammation and the central sensitization of pain. Since this phase reflects the activation of inflammatory processes, the compounds active in this phase of the experiment also have an anti-inflammatory effect. The tested compounds 19, 22 and 24, were investigated in three doses: 10, 20 and 40 mg/kg bw. ASA (acetylsalicylic acid) was used as a reference compound and administered in doses of 50, 100 and 200 mg/kg. […] The strongest effect in this assay was produced by 24. […] In addition, this anti-nociceptive and anti-inflammatory effect was approximately 13.8 times greater than that observed for the reference compound (ASA). […] ASA also attenuated statistically significant pain responses in the late phases of the formalin test. […] The in vivo experiments were carried out on male albino Swiss mice weighing 18–26 g and male Wistar rats weighing 150–180 g. The animals were housed in constant temperature facilities exposed to a 12:12 light-dark cycle and maintained on a standard pellet diet and tap water given ad libitum. The control and experimental groups consisted of 6–8 animals each. The investigated compounds were intraperitoneally (ip) administered in the form of a suspension in 0.5% methylcellulose. Control animals received the equivalent volume of solvent. All procedures were conducted according to the guidelines of ICLAS (International Council on Laboratory Animals Science) and were approved by the Local Ethics Committee of the Jagiellonian University in Kraków. The mice were pretreated with the test compound or the vehicle and were allowed to acclimate in Plexiglas observation chambers (20 × 30 × 15 cm) for 30 min before the test. Then, 20 μL of a 5% formalin solution was intraplantarly injected into the right hind paw using a 26-gauge needle. Immediately after formalin injection, the animals were individually placed into glass beakers and were observed during the next 30 min. Time (in seconds) spent on licking or biting the injected paw in selected intervals, 0–5, 15–20, 20–25 and 25–30 min, was measured in each experimental group and was an indicator of nociceptive behavior [41]. The ED50 values and their confidence limits were estimated by the method of Litchfield and Wilcoxon.

human adenosine A2BR = molecular target: T3, human adenosine A2BR (Homo sapiens, UniProt P29275); assay: Radioligand binding at human adenosine A2B receptor vs. [3H]PSB-603; conditions: for inhibition at 1 µM: CHO cells, read-out: A2BR vs. [³H]PSB-603 % Inhibition ± SEM at 1 µM; for Ki: human recombinant receptor in CHO cells, read-out: A2BR vs. [³H]PSB-603 Ki ± SEM
T3 construct: expressed in transfected cells; host or cells: CHO cells
T3 sequence (P29275 1-332): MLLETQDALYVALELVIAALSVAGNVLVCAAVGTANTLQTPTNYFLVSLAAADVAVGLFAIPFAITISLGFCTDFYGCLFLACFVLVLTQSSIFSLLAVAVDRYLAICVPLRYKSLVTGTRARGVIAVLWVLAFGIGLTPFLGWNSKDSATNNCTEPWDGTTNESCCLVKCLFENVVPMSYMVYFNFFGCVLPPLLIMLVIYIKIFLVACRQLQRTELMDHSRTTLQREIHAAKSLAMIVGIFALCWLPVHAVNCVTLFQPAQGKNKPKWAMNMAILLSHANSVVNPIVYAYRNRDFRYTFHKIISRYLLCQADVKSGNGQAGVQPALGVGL

T1 sequence (P29274 whole entry): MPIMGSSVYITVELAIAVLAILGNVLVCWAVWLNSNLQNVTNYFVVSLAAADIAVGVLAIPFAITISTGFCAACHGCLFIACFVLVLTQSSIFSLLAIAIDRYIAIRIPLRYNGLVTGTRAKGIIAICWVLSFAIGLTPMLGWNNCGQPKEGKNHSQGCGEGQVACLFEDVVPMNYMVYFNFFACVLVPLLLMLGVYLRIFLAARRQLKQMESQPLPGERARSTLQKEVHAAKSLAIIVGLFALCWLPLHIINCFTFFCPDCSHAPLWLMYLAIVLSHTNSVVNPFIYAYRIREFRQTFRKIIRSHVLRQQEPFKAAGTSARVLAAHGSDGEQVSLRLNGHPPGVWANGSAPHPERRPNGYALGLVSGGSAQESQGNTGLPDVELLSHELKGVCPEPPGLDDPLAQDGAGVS

SMILES | number of metabolites formed [1] | remaining at 2 h [1] [%] | potency as A2AR ligand compared with A1R (human adenosine A2AR) | Ki (human adenosine A2AR) [nM] | Ki (human adenosine A1R) [nM] | Early Phase Inhibition (%) (formalin test in mice; mice, 10 mg/kg ip) | Late Phase Inhibition (%) (formalin test in mice; mice, 10 mg/kg ip) | Licking of the Hind Paw Early Phase (0–5 min) Mean ± SEM (formalin test in mice; mice, 10 mg/kg ip) [s] | Licking of the Hind Paw Late Phase (15–30 min) Mean ± SEM (formalin test in mice; mice, 10 mg/kg ip) | Early Phase Inhibition (%) (formalin test in mice; mice, 20 mg/kg ip) | Late Phase Inhibition (%) (formalin test in mice; mice, 20 mg/kg ip) | Licking of the Hind Paw Early Phase (0–5 min) Mean ± SEM (formalin test in mice; mice, 20 mg/kg ip) [s] | Licking of the Hind Paw Late Phase (15–30 min) Mean ± SEM (formalin test in mice; mice, 20 mg/kg ip) | Early Phase Inhibition (%) (formalin test in mice; mice, 40 mg/kg ip) | Late Phase Inhibition (%) (formalin test in mice; mice, 40 mg/kg ip) | Licking of the Hind Paw Early Phase (0–5 min) Mean ± SEM (formalin test in mice; mice, 40 mg/kg ip) [s] | Licking of the Hind Paw Late Phase (15–30 min) Mean ± SEM (formalin test in mice; mice, 40 mg/kg ip) | inhibition at 1 µM (human adenosine A2BR) [%] | Ki (human adenosine A2BR) [nM] | further results
C#CCn1c(=O)c2c(nc(NCc3cccc(Br)c3)n2C)n(C)c1=O [compound 24, 8-((3-Bromobenzyl)amino)-3,7-dimethyl-1-(prop-2-yn-1-yl)-3,7-dihydro-1H-purine-2,6-dione] | one metabolite | > 95 | equal potency for both receptors | 77 ± 24 | 72 ± 8 | 0 | 48.7 | 43.2 ± 6.6 | 61.2 ± 6.4 ^b sec | 24.5 | 82.9 | 31.4 ± 5.0 | 20.4 ± 10.6 ^d sec | 26.0 | 89.7 | 30.8 ± 6.7 | 12.2 ± 3.3 ^d sec | 25 | > 1000 | ED50 (formalin test in mice; Mus musculus, mice, II (late) phase, method of Litchfield and Wilcoxon, read-out: calculated ED50 in the formalin test): 9.1 mg/kg; effect, times greater than that of the reference compound (ASA) (formalin test in mice; formalin test, from ED50): approximately 13.8 times
C#CCn1c(=O)c2c(nc(NCc3ccccc3Cl)n2C)n(C)c1=O [compound 19, 8-((2-Chlorobenzyl)amino)-3,7-dimethyl-1-(prop-2-yn-1-yl)-3,7-dihydro-1H-purine-2,6-dione] | two metabolites | > 95 | four times more potent as A2AR ligand | 96 ± 31 | 407 ± 75 | – | 26.0 | 41.8 ± 5.5 | 88.4 ± 5.6 s | 0 | 35.7 | 48.2 ± 10.0 | 76.8 ± 26.4 s | 0 | 47.2 | 42.6 ± 2.8 | 63.0 ± 6.6 ^b sec | 14 | > 1000 | –
C#CCn1c(=O)c2c(nc(NCc3c(F)cccc3Cl)n2C)n(C)c1=O [compound 22, 8-((2-Chloro-6-fluorobenzyl)amino)-3,7-dimethyl-1-(prop-2-yn-1-yl)-3,7-dihydro-1H-purine-2,6-dione] | one metabolite | > 90 | twice more potent as A2AR ligand | 62 ± 5 | 130 ± 34 | 0 | 22.8 | 41.6 ± 5.4 | 92.2 ± 6.5 s | – | – | 41.0 ± 8.6 | 78.2 ± 20.3 s | 5.8 | 48.0 | 39.2 ± 1.3 | 62.0 ± 5.2 ^b sec | 41 | > 1000 | –
